Measurements as given in patent EP3789378A1, “PIPERIDINES OR PIPERIDONES SUBSTITUTED WITH UREA AND HETEROARYL” (Grünenthal GmbH, priority 2019, dated 2021).

These compounds were tested against T1, h FPR2 (Homo sapiens, UniProt P25090) (assay: Agonistic activity in hFPR2-Aq-CHO cells (FLIPR Calcium 5 fluorescence assay)). Settings: 11 point half log dilution, final assay concentration from 10µM.
T1 construct: expressed in transfected cells
T1 sequence (P25090 1-351): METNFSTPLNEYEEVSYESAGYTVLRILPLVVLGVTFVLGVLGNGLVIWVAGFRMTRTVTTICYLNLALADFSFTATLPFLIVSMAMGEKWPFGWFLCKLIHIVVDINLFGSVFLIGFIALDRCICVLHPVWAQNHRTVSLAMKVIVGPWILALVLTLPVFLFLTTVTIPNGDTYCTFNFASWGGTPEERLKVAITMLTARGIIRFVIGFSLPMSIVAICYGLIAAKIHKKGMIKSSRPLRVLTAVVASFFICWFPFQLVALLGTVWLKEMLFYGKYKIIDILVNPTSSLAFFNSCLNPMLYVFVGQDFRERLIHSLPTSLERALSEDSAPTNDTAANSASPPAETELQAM
Type: cell-based
Method in brief: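 hFPR2-Aq-CHO cells were loaded with Calcium 5 dye for 30 min at 37 °C and equilibrated 10 min at room temperature. Compound (11 points, 10 µM to 100 pM final) was added in HBSS/HEPES/probenecid buffer pH 7.4. Fluorescence rise over basal across 5 min, relative to no-compound wells, gave EC50.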

Row | EC50 [nM] | SMILES
1 | 58 | COc1ccc([C@@H]2CN(C(=O)C3CCN(C)CC3)CC[C@H]2NC(=O)Nc2ccccc2)nc1 (relative stereo) [Ex-156, trans-1-[3-(5-Methoxy-pyridin-2-yl)-1-(1-methyl-piperidine-4-carbonyl)-piperidin-4-yl]-3-phenyl-urea]
2 | 2 | O=C(Nc1ccc(Cl)cc1)N[C@@H]1CCN(Cc2ccc(C(F)(F)F)nc2)C[C@H]1c1ccc(Cl)s1 (relative stereo) [Ex-74, trans-1-(4-chlorophenyl)-3-[3-(5-chlorothiophen-2-yl)-1-{[6-(trifluoromethyl)pyridin-3-yl]methyl}piperidin-4-yl]urea]
3 | 0.3 | CNC(=O)CN1CC[C@H](NC(=O)Nc2ccc(Cl)cc2)[C@@H](c2ccc(OC)cn2)C1 [Ex-215]
4 | 1.4 | COc1ccc([C@@H]2CN(C(=O)C3CCN(C)CC3)CC[C@H]2NC(=O)Nc2ccc(Cl)cc2)nc1 (single isomer, unassigned) [Ex-187, trans-1-(4-chlorophenyl)-3-[3-(5-methoxypyridin-2-yl)-1-(1-methylpiperidine-4-carbonyl)piperidin-4-yl]urea]
5 | 10 | COc1ccc([C@@H]2CN(c3ccc(F)cc3)CC[C@H]2NC(=O)Nc2cc(C)ns2)cn1 (relative stereo) [Ex-3, trans-1-[1-(4-fluoro-phenyl)-6'-methoxy-1,2,3,4,5,6-hexahydro-[3,3']bipyridinyl-4-yl]-3-(3-methyl-isothiazol-5-yl)-urea]
6 | 0.16 | COc1ccc([C@@H]2CN(CC3CC3)CC[C@H]2NC(=O)Nc2ccc(Cl)cc2)nc1 (relative stereo) [Ex-127, trans-1-(4-Chlorophenyl)-3-[1-(cyclopropyl-methyl)-3-(5-methoxy-pyridin-2-yl)-piperidin-4-yl]-urea]
7 | 2 | Cc1ncc(CN2CC[C@@H](NC(=O)Nc3ccc(Cl)cc3)[C@H](c3ccc(Cl)s3)C2)cn1 (relative stereo) [Ex-76, trans-1-(4-chlorophenyl)-3-[3-(5-chlorothiophen-2-yl)-1-[(2-methylpyrimidin-5-yl)methyl]piperidin-4-yl]urea]
8 | 1 | COc1ccc([C@@H]2CN(Cc3ccn(S(C)(=O)=O)n3)CC[C@H]2NC(=O)Nc2ccc(Cl)cc2)nc1 (single isomer, unassigned) [Ex-42, trans-1-(4-chlorophenyl)-3-[1-[(1-methanesulfonyl-1H-pyrazol-3-yl)methyl]-3-(5-methoxypyridin-2-yl)piperidin-4-yl]urea]
9 | 0.4 | COc1ccc([C@@H]2CN(CC3CCN(C)CC3)CC[C@H]2NC(=O)Nc2ccc(Cl)cc2)nc1 (relative stereo) [Ex-147, trans-1-(4-Chlorophenyl)-3-[3-(5-methoxy-pyridin-2-yl)-1-[(1-methyl-piperidin-4-yl)-methyl]-piperidin-4-yl]-urea]
10 | 4 | COc1ccc([C@@H]2CN(CC3CC(O)C3)CC[C@H]2NC(=O)Nc2ccc(Cl)cc2)nc1 (single isomer, unassigned) [Ex-205, trans-1-(4-chloro-phenyl)-3-[1'-(3-hydroxy-cyclobutylmethyl)-5-methoxy-1',2',3',4',5',6'-hexahydro-[2,3']bipyridinyl-4'-yl]-urea]
11 | 5 | COc1ccc([C@@H]2CN(c3cncc(C)n3)CC[C@H]2NC(=O)Nc2ccc(Cl)cc2)nc1 (relative stereo) [Ex-224, trans-1-(4-chloro-phenyl)-3-[5-methoxy-1'-(6-methyl-pyrazin-2-yl)-1',2',3',4',5',6'-hexahydro-[2,3']bipyridinyl-4'-yl]-urea]
12 | 81 | COc1ccc([C@@H]2CN(C(=O)CN(C)C)CC[C@H]2NC(=O)Nc2ccccc2)nc1 (relative stereo) [Ex-157, trans-1-[1-(2-Dimethylamino-acetyl)-3-(5-methoxy-pyridin-2-yl)-piperidin-4-yl]-3-phenyl-urea]
13 | 1.2 | COc1ccc([C@@H]2CN(C(=O)c3ccc(C(F)(F)F)nc3)CC[C@H]2NC(=O)Nc2ccc(C#N)cc2)nc1 (relative stereo) [Ex-141, trans-1-(4-Cyano-phenyl)-3-[3-(5-methoxy-pyridin-2-yl)-1-[6-(trifluoromethyl)-pyridine-3-carbonyl]-piperidin-4-yl]-urea]
14 | 38 | COc1ccc([C@@H]2CN(C(C)(C)CO)CC[C@H]2NC(=O)Nc2ccc(Cl)cc2)nc1 (relative stereo) [Ex-219, trans-1-(4-chloro-phenyl)-3-[1'-(2-hydroxy-1,1-dimethyl-ethyl)-5-methoxy-1',2',3',4',5',6'-hexahydro-[2,3']bipyridinyl-4'-yl]-urea]
15 | 7 | O=C(Nc1ccc(Cl)cc1)NC1CC(=O)N(c2ccc(F)cc2)CC1c1ccc(Cl)cn1 (single isomer, unassigned) [Ex-15, 1-(4-chlorophenyl)-3-[5-(5-chloropyridin-2-yl)-1-(4-fluorophenyl)-2-oxopiperidin-4-yl]urea]
16 | 0.3 | Cc1cc(NC(=O)N[C@@H]2CCN(Cc3cc(C)on3)C[C@H]2c2ccc(Cl)s2)sn1 (single isomer, unassigned) [Ex-49, trans-1-[3-(5-chlorothiophen-2-yl)-1-[(5-methyl-1,2-oxazol-3-yl)methyl]piperidin-4-yl]-3-(3-methyl-1,2-thiazol-5-yl)urea]
17 | 2 | CNCCN1CC[C@@H](NC(=O)Nc2cc(C)ns2)[C@H](c2ccc(OC)cn2)C1 (relative stereo) [Ex-134, trans-1-[3-(5-Methoxy-pyridin-2-yl)-1-(2-methylamino-ethyl)-piperidin-4-yl]-3-(3-methyl-isothiazol-5-yl)-urea]
18 | 52 | CS(=O)(=O)n1ccc(CN2CC[C@@H](NC(=O)Nc3ccc(Cl)cc3)[C@H](c3ccc(Cl)s3)C2)n1 (single isomer, unassigned) [Ex-78, trans-1-(4-chlorophenyl)-3-[3-(5-chlorothiophen-2-yl)-1-[(1-methanesulfonyl-1H-pyrazol-3-yl)methyl]piperidin-4-yl]urea]
19 | 2 | COc1ccc([C@@H]2CN(C(=O)C3CCN(C)CC3)CC[C@H]2NC(=O)Nc2ccc(Cl)cc2)nc1 (racemic) [Ex-89, trans-1-(4-chloro-phenyl)-3-[5-methoxy-1'-(1-methyl-piperidine-4-carbonyl)-1',2',3',4',5',6'-hexahydro-[2,3']bipyridinyl-4'-yl]-urea]
20 | 0.7 | COc1ccc([C@@H]2CN(CC3CC(O)C3)CC[C@H]2NC(=O)Nc2ccc(Cl)cc2)nc1 (single isomer, unassigned) [Ex-203, trans-1-(4-chloro-phenyl)-3-[1'-(3-hydroxy-cyclobutylmethyl)-5-methoxy-1',2',3',4',5',6'-hexahydro-[2,3']bipyridinyl-4'-yl]-urea]
21 | 18 | COc1ccc([C@@H]2CN(C(=O)CO)CC[C@H]2NC(=O)Nc2cc(C)ns2)nc1 (relative stereo) [Ex-123, trans-1-[1-(2-Hydroxy-acetyl)-3-(5-methoxy-pyridin-2-yl)-piperidin-4-yl]-3-(3-methyl-isothiazol-5-yl)-urea]
22 | 12 | O=C(Nc1ccccc1)N[C@@H]1CCN(CC(F)F)C[C@H]1c1ccc(Cl)cn1 (relative stereo) [Ex-153, trans-1-[3-(5-Chloro-pyridin-2-yl)-1-(2,2-difluoro-ethyl)-piperidin-4-yl]-3-phenyl-urea]
23 | 37 | COc1ccc([C@@H]2CN(CC3CCNCC3)CC[C@H]2NC(=O)Nc2ccc(Cl)cc2)nc1 (single isomer, unassigned) [Ex-82, trans-1-(4-chlorophenyl)-3-(3-(5-methoxypyridin-2-yl)-1-(piperidin-4-ylmethyl)piperidin-4-yl)urea]
24 | 7 | COc1ccc([C@@H]2CN(c3ccnc(C)n3)CC[C@H]2NC(=O)Nc2cc(C)ns2)nc1 (relative stereo) [Ex-211, trans-1-[5-methoxy-1'-(2-methyl-pyrimidin-4-yl)-1',2',3',4',5',6'-hexahydro-[2,3']bipyridinyl-4'-yl]-3-(3-methyl-isothiazol-5-yl)-urea]
25 | 0.3 | COc1cnc([C@@H]2CN(CCCN(C)C)CC[C@H]2NC(=O)Nc2ccc(Cl)cc2)c(F)c1 (relative stereo) [Ex-212, trans-1-(4-chloro-phenyl)-3-[1'-(3-dimethylamino-propyl)-3-fluoro-5-methoxy-1',2',3',4',5',6'-hexahydro-[2,3']bipyridinyl-4'-yl]-urea]

Row | SMILES | EC50 [nM]
26 | COc1ccc([C@@H]2CN(CC(F)F)CC[C@H]2NC(=O)Nc2ccccc2)nc1 (relative stereo) [Ex-150, trans-1-[1-(2,2-Difluoro-ethyl)-3-(5-methoxy-pyridin-2-yl)-piperidin-4-yl]-3-phenyl-urea] | 3

Same assay, conditions: agonistic response at 0.1µM

Row | activation at 0.1 µM [%] | h FPR2 FLIPR % @0.1µM [%@0.1µM] | SMILES
27 | 25 | – | O=C(Nc1ccccc1)N[C@@H]1CCN(CCO)C[C@H]1c1ccc(Cl)cn1 (relative stereo) [Ex-152, trans-1-[3-(5-Chloro-pyridin-2-yl)-1-(2-hydroxy-ethyl)-piperidin-4-yl]-3-phenyl-urea]
28 | – | 40 | COc1ccc([C@@H]2CN(CC3CCOCC3)CC[C@H]2NC(=O)Nc2ccc(Cl)cc2)nc1 (relative stereo) [Ex-50, trans-1-(4-chlorophenyl)-3-[(5-methoxypyridin-2-yl)-1-(oxan-4-ylmethyl)piperidin-4-yl]urea]
29 | 8 | – | COc1ccc([C@@H]2CN(C(=O)CN(C)C)CC[C@H]2NC(=O)Nc2ccc(Cl)cc2)nc1 (relative stereo) [Ex-190, trans-1-(4-chlorophenyl)-3-[1-[2-(dimethylamino)acetyl]-3-(5-methoxypyridin-2-yl)piperidin-4-yl]urea]
